For 60 molecules, IC50 results are on record in patent publication US11744824B2, “2-amino-3-carbonyl imidazopyridine and pyrazolopyridine compounds” (1ST Biotherapeutics, Inc., priority 2020, dated 2023).

The structures appear in SMILES notation.

Sequence of GST-tagged recombinant human RIP2 (O43353 whole entry): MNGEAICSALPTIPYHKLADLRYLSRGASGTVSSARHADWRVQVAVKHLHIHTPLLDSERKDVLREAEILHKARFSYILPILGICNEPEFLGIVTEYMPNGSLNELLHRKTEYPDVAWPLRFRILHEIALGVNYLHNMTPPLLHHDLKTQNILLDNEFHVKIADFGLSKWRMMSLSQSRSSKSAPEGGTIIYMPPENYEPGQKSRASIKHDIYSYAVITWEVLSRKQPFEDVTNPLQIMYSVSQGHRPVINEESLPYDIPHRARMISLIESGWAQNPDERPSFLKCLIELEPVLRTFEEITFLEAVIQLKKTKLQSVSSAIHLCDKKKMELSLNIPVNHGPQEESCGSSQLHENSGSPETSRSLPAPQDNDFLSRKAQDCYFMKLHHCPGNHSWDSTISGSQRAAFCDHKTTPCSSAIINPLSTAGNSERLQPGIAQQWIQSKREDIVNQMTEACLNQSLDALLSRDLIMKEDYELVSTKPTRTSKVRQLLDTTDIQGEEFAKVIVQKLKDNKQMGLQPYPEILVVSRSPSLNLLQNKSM

The assay deals with GST-tagged recombinant human RIP2 (Homo sapiens (Human), UniProt O43353). The experiment in a line: RIP2 Kinase Assay (ADP-Glo). Conditions: in vitro kinase activity, ATP 25 μM. Type of assay: biochemical. The protocol:
GST-tagged recombinant human RIP2 (25 ng) is incubated with 5 μL of compounds (0.5% DMSO), 5 μL of MBP (0.5 μg/μl) and 5 μL of ATP (25 μM) in buffer (40 mM Tris, 7.5; 20 mM MgCl2; 0.1 mg/ml BSA; 50 μM DTT). The assay was started by incubating the reaction mixture in a 96-well plate at 30° C. for 60 minutes. After the incubation, 25 μL ADP-Glo reagent was added, and the reaction was incubated at 30° C. for 40 minutes to stop the reaction and degrade residual ATP. The ADP product was then converted to ATP by adding 50 μL per well of detection reagent. Luminescence was detected after 30 minutes room temperature incubation with the Molecular device I3X plate reader. The IC50 values were calculated from a series of percent inhibition values determined at a range of inhibitor concentration using software routines as implemented in the GraphPad Prism 7 software and SigmaPlot 13.0.
Turning to `CN1CCN(c2cccc(-c3ccc4nc(N)c(C(=O)[C@@H]5C[C@@H]5F)n4c3)c2)CC1` [Example 56], the IC50 lay in the range of 101 to 500 nM.

With `Nc1nc2ccc(-c3ccc4cc[nH]c4c3)cn2c1C(=O)[C@@H]1C[C@@H]1F` [Example 58], the IC50 was 1 to 100 nM.

`Nc1nc2ccc(-c3cccc4cc[nH]c34)cn2c1C(=O)[C@@H]1C[C@@H]1F` [Example 59]: the IC50 is 1 to 100 nM.

As for `Cc1c(F)c(N(C)C)c2[nH]ncc2c1-c1ccc2nc(N)c(C(=O)[C@@H]3C[C@@H]3F)n2c1` [Example 61], the IC50 fell in the range of 101 to 500 nM.

As to `CSc1c(F)c(C)c(-c2ccc3nc(N)c(C(=O)[C@@H]4C[C@@H]4F)n3c2)c2cn[nH]c12` [Example 62], the IC50 fell in the range of 101 to 500 nM.

As to `Nc1nc2ccc(-c3ccc4occc4c3)cn2c1C(=O)[C@@H]1C[C@@H]1F` [Example 63], the IC50 was in the range of 1 to 100 nM.

`CSc1c(F)c(Cl)c(-c2ccc3nc(N)c(C(=O)[C@@H]4C[C@@H]4F)n3c2)c2cn[nH]c12` [Example 66]: the IC50 lay in the range of 101 to 500 nM.

Consider `Cc1c(F)cccc1-c1ccc2nc(NC(=O)OC(C)(C)C)c(C(=O)[C@@H]3C[C@@H]3F)n2c1` [Example 70, tert-butyl (6-(3-fluoro-2-methylphenyl)-3-((1S,2S)-2-fluorocyclopropane-1-carbonyl)imidazo[1,2-a]pyridin-2-yl)carbamate], for which the IC50 was above 1000 nM.

`Cc1c(F)cccc1-c1ccc2nc(N3CCCC3)c(C(=O)[C@@H]3C[C@@H]3F)n2c1` [Example 71, (6-(3-fluoro-2-methylphenyl)-2-(pyrrolidin-1-yl)imidazo[1,2-a]pyridin-3-yl)((1S,2S)-2-fluorocyclopropyl)methanone]: the IC50 was above 1000 nM.

`Cc1cc(-c2ccc3nc(N)c(C(=O)[C@@H]4C[C@@H]4F)n3c2)sn1` [Example 72]: the IC50 was 101 to 500 nM.

Regarding `Cc1c(F)cccc1-c1ccc2nc(N)c(C(=O)c3ncccn3)n2c1` [Example 76], the IC50 lay in the range of 1 to 100 nM.

Turning to `Cc1c(F)cccc1-c1ccc2nc(N)c(C(=O)c3ccncn3)n2c1` [Example 77], the IC50 is 101 to 500 nM.

On to `Nc1nc2ccc(-c3cnc4[nH]ccc4c3)cn2c1C(=O)c1ccncn1` [Example 78], for which the IC50 fell in the range of 1 to 100 nM.

For the molecule `Nc1nc2ccc(-c3ccc4[nH]ncc4c3)cn2c1C(=O)[C@@H]1C[C@@H]1F` [Example 80], the IC50 is 1 to 100 nM.

Regarding `Nc1nc2ccc(-c3ccc4[nH]ncc4c3Cl)cn2c1C(=O)[C@@H]1C[C@@H]1F` [Example 81], the IC50 fell in the range of 1 to 100 nM.

On to `CNCCNc1nc2ccc(-c3cccc(F)c3C)cn2c1C(=O)[C@@H]1C[C@@H]1F` [Example 87, (6-(3-fluoro-2-methylphenyl)-2-((2-(methylamino)ethyl)amino)imidazo[1,2-a]pyridin-3-yl)((1S,2S)-2-fluorocyclopropyl)methanone], for which the IC50 was above 1000 nM.

As to `CC(=O)Nc1nc2ccc(-c3cccc(F)c3C)cn2c1C(=O)[C@@H]1C[C@@H]1F` [Example 88, N-(6-(3-fluoro-2-methylphenyl)-3-((1S,2S)-2-fluorocyclopropane-1-carbonyl)imidazo[1,2-a]pyridin-2-yl)acetamide], the IC50 was in the range of 101 to 500 nM.

Turning to `Nc1nc2ccc(-c3cnc4[nH]ccc4c3)cn2c1C(=O)C1CCNC1` (stereo not drawn) [Example 91], the IC50 fell in the range of 101 to 500 nM.

Turning to `Nc1nc2c(F)cc(-c3ccc4[nH]ccc4c3)cn2c1C(=O)[C@@H]1C[C@@H]1F` [Example 92], the IC50 was 101 to 500 nM.

As for `Cc1c(F)cccc1-c1ccc2nc(NCCN)c(C(=O)[C@@H]3C[C@@H]3F)n2c1` [Example 93], the IC50 was above 1000 nM.

For the molecule `Nc1nc2c(F)cc(-c3cccc4[nH]ccc34)cn2c1C(=O)[C@@H]1C[C@@H]1F` [Example 96], the IC50 is 101 to 500 nM.

`Cc1c(-c2cc(F)c3nc(N)c(C(=O)[C@@H]4C[C@@H]4F)n3c2)cnc2[nH]ccc12` [Example 97]: the IC50 was 1 to 100 nM.

Take `CC(C)(C)OC(=O)n1cc(-c2ccc3nc(N)c(C(=O)[C@@H]4C[C@@H]4F)n3c2)c2ccccc21` [Example 98]: the IC50 is above 1000 nM.

Consider `Cc1c(F)cccc1-c1cc(F)c2nc(N)c(C(=O)[C@@H]3C[C@@H]3F)n2c1` [Example 99, (2-amino-8-fluoro-6-(3-fluoro-2-methylphenyl)imidazo[1,2-a]pyridin-3-yl)((1S,2S)-2-fluorocyclopropyl)methanone], for which the IC50 was 101 to 500 nM.

Take `Nc1nc2ccc(-c3ccc4[nH]cnc4c3)cn2c1C(=O)[C@@H]1C[C@@H]1F` [Example 102]: the IC50 lay within 1 to 100 nM.

As to `Cc1c(-c2ccc3nc(N)c(C(=O)[C@@H]4C[C@@H]4F)n3c2)ccc2[nH]cnc12` [Example 103], the IC50 was 101 to 500 nM.

Regarding `Cc1c(-c2ccc3nc(N)c(C(=O)[C@@H]4C[C@@H]4F)n3c2)cnc2c1ccn2C` [Example 106], the IC50 was in the range of 101 to 500 nM.

In the case of `Cc1c(F)cccc1-c1ccc2nc(N)c(C(=O)N(C)C3CC3)n2c1` [Example 107, 2-amino-N-cyclopropyl-6-(3-fluoro-2-methylphenyl)-N-methylimidazo[1,2-a]pyridine-3-carboxamide], the IC50 was above 1000 nM.

Take `Cc1c(F)cccc1-c1ccc2nc(N)c(C(=O)N[C@@H]3C[C@@H]3F)n2c1` [Example 108]: the IC50 was in the range of 101 to 500 nM.

`Cc1c(F)cccc1-c1ccc2nc(N)c(C(=O)NC3CC3)n2c1` [Example 109]: the IC50 fell in the range of 101 to 500 nM.

In the case of `Nc1nc2ccc(-c3c[nH]c4ccc(Cl)cc34)cn2c1C(=O)[C@@H]1C[C@@H]1F` [Example 111], the IC50 was in the range of 101 to 500 nM.

For `CC(=O)NNC(=O)c1c(N)nc2ccc(-c3cccc(F)c3C)cn12` [Example 112, N′-acetyl-2-amino-6-(3-fluoro-2-methylphenyl)imidazo[1,2-a]pyridine-3-carbohydrazide], the IC50 is above 1000 nM.

`Nc1nc2ccc(-c3cnc4ccccc4c3)cn2c1C(=O)[C@@H]1C[C@@H]1F` [Example 116]: the IC50 fell in the range of 101 to 500 nM.

As to `Nc1nc2ccc(-c3cncc4ccccc34)cn2c1C(=O)[C@@H]1C[C@@H]1F` [Example 117], the IC50 is 1 to 100 nM.

With `Cc1ccccc1-c1ccc2nc(N)c(C(=O)[C@@H]3C[C@@H]3F)n2c1` [Example 118], the IC50 was 1 to 100 nM.

`Nc1nc2ccc(-c3ccccc3OCCF)cn2c1C(=O)[C@@H]1C[C@@H]1F` [Example 119]: the IC50 was in the range of 101 to 500 nM.

For `Nc1nc2ccc(-c3cccc(F)c3OCCF)cn2c1C(=O)[C@@H]1C[C@@H]1F` [Example 120], the IC50 was 101 to 500 nM.

For `CC(C)(C)OC(=O)n1cccc1-c1ccc2nc(N)c(C(=O)[C@@H]3C[C@@H]3F)n2c1` [Example 121], the IC50 is above 1000 nM.

As to `CC(C)(C)OC(=O)n1ccc(-c2ccc3nc(N)c(C(=O)[C@@H]4C[C@@H]4F)n3c2)c1` [Example 122], the IC50 is above 1000 nM.

For the molecule `Nc1nc2ccc(-c3cccc(F)c3CCCO)cn2c1C(=O)[C@@H]1C[C@@H]1F` [Example 123], the IC50 is 101 to 500 nM.

On to `Nc1nc2ccc(-c3ccc[nH]3)cn2c1C(=O)[C@@H]1C[C@@H]1F` [Example 124], for which the IC50 is above 1000 nM.

With `Nc1nc2ccc(-c3cc[nH]c3)cn2c1C(=O)[C@@H]1C[C@@H]1F` [Example 125], the IC50 is above 1000 nM.

Turning to `Nc1nc2ccc(-c3cccc(F)c3CCO)cn2c1C(=O)[C@@H]1C[C@@H]1F` [Example 126], the IC50 is above 1000 nM.

For `Nc1nc2ccc(-c3cccc(F)c3CO)cn2c1C(=O)[C@@H]1C[C@@H]1F` [Example 127], the IC50 was above 1000 nM.

As for `Nc1nc2ccc(-c3ccccc3CCO)cn2c1C(=O)[C@@H]1C[C@@H]1F` [Example 128], the IC50 is 101 to 500 nM.

For the molecule `Nc1nc2ccc(-c3ccccc3CCCO)cn2c1C(=O)[C@@H]1C[C@@H]1F` [Example 129], the IC50 lay in the range of 101 to 500 nM.

On to `Nc1nc2ccc(-c3ccccc3CCF)cn2c1C(=O)[C@@H]1C[C@@H]1F` [Example 130], for which the IC50 is 101 to 500 nM.

Regarding `Nc1nc2ccc(-c3cccc(F)c3CCCF)cn2c1C(=O)[C@@H]1C[C@@H]1F` [Example 131], the IC50 is 101 to 500 nM.

With `Nc1nc2ccc(-c3ccccc3CCCF)cn2c1C(=O)[C@@H]1C[C@@H]1F` [Example 132], the IC50 lay in the range of 101 to 500 nM.

With `Cc1c(N)cc(F)cc1-c1ccc2nc(N)c(C(=O)[C@@H]3C[C@@H]3F)n2c1` [Example 133], the IC50 is 1 to 100 nM.

As to `Cc1cc(-c2ccc3nc(N)c(C(=O)[C@@H]4C[C@@H]4F)n3c2)c(F)cc1N` [Example 134], the IC50 lay within 1 to 100 nM.

In the case of `COC(=O)c1c(N)nc2ccc(-c3cccc(F)c3C)cn12` [Example 135, methyl 2-amino-6-(3-fluoro-2-methylphenyl)imidazo[1,2-a]pyridine-3-carboxylate], the IC50 was in the range of 101 to 500 nM.

Regarding `Nc1nc2ccc(-c3cccc(F)c3CCF)cn2c1C(=O)[C@@H]1C[C@@H]1F` [Example 136], the IC50 is above 1000 nM.

With `CC(C)(C)OC(=O)NCc1ccccc1-c1ccc2nc(N)c(C(=O)[C@@H]3C[C@@H]3F)n2c1` [Example 137], the IC50 was above 1000 nM.

On to `NCc1ccccc1-c1ccc2nc(N)c(C(=O)[C@@H]3C[C@@H]3F)n2c1` [Example 138], for which the half-inhibitory concentration (IC50) is above 1000 nM.

On to `Nc1nc2ccc(-c3ccccc3CCF)cn2c1C(=O)[C@@H]1C[C@H]1F` [Example 139], for which the IC50 was above 1000 nM.

Turning to `Nc1nc2ccc(-c3ccccc3CCF)cn2c1C(=O)[C@H]1C[C@@H]1F` [Example 140], the IC50 was above 1000 nM.

With `Cc1ccc(N)cc1-c1ccc2nc(N)c(C(=O)[C@@H]3C[C@@H]3F)n2c1` [Example 142], the IC50 was in the range of 1 to 100 nM.

With `Cc1cccc(N)c1-c1ccc2nc(N)c(C(=O)[C@@H]3C[C@@H]3F)n2c1` [Example 143], the IC50 was above 1000 nM.

For the molecule `CO/C=C/c1c(F)cccc1-c1ccc2nc(N)c(C(=O)[C@@H]3C[C@@H]3F)n2c1` [Example 144], the IC50 fell in the range of 101 to 500 nM.
